Assay results from PubChem BioAssay AID256 (DTP/NCI, 2004).
Several values for one entry are separate records, joined by “and”; a condition that tells them apart may be missing. Equal values may be shown once. Inconclusive results and toxic doses are left out.

System: CD2F1 mice, L1210 leukemia ip, survival T/C
Experiment: NCI In Vivo Anticancer Drug Screen. Data for tumor model L1210 Leukemia (intraperitoneal) in CD2F1 (CDF1) mice
Details: higher = longer survival
In short: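 Ratio T/C, where T is the treated-group value and C the vehicle-dosed control value, from mice implanted with a transplantable tumor.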

[1] = endpoint: mean survival time, dose: 100.0 mg/kg/injection, schedule: Q01DX001 (ip), vehicle: saline
[2] = endpoint: mean survival time, dose: 100.0 mg/kg/injection, schedule: Q01DX009 (ip), vehicle: saline with Tween-80
[3] = endpoint: mean survival time, dose: 100.0 mg/kg/injection, schedule: Q04DX003 (ip), vehicle: saline
[4] = endpoint: mean survival time, dose: 200.0 mg/kg/injection, schedule: Q01DX001 (ip), vehicle: saline
[5] = endpoint: mean survival time, dose: 200.0 mg/kg/injection, schedule: Q04DX003 (ip), vehicle: saline
[6] = endpoint: mean survival time, dose: 100.0 mg/kg/injection, schedule: Q04DX003 (ip), vehicle: saline with Tween-80
[7] = endpoint: mean survival time, dose: 200.0 mg/kg/injection, schedule: Q01DX009 (ip), vehicle: saline with Tween-80
[8] = endpoint: mean survival time, dose: 200.0 mg/kg/injection, schedule: Q04DX003 (ip), vehicle: saline with Tween-80
[9] = endpoint: mean survival time, dose: 400.0 mg/kg/injection, schedule: Q01DX009 (ip), vehicle: saline with Tween-80
[10] = endpoint: mean survival time, dose: 400.0 mg/kg/injection, schedule: Q04DX003 (ip), vehicle: saline with Tween-80

With `CC(=O)C/C=C(\C)CCC=C(C)C` the T/C (endpoint: mean survival time, dose: 100.0 mg/kg/injection, schedule: Q04DX003 (ip), vehicle: acetone) was 91 % of control, the T/C (endpoint: mean survival time, dose: 200.0 mg/kg/injection, schedule: Q04DX003 (ip), vehicle: acetone) was 94 % of control and the T/C (endpoint: mean survival time, dose: 400.0 mg/kg/injection, schedule: Q04DX003 (ip), vehicle: acetone) was 98 % of control.

For `CC(C)(C)C1=CC(C(C)(C)C)CCC1=O` (stereo not drawn), the T/C (endpoint: mean survival time, dose: 100.0 mg/kg/injection, schedule: Q01DX009 (ip), vehicle: acetone) was 94 % of control and the T/C (endpoint: mean survival time, dose: 200.0 mg/kg/injection, schedule: Q01DX009 (ip), vehicle: acetone) was 94 % of control.

With `COc1ccc2nc3cc(Cl)ccc3c(Nc3ccc(NC(C)=O)cc3)c2n1` the T/C (endpoint: mean survival time, dose: 25.0 mg/kg/injection, schedule: Q01DX009 (ip), vehicle: other) was 92 % of control, the T/C (endpoint: mean survival time, dose: 50.0 mg/kg/injection, schedule: Q01DX009 (ip), vehicle: other) was 86 % of control and the T/C (endpoint: mean survival time, dose: 100.0 mg/kg/injection, schedule: Q01DX009 (ip), vehicle: other) was 94 % of control.

`CC(=O)NC(C(=O)O)C(C)C.CC(=O)NC(C(=O)O)C(C)C.[NH-]C1CCCCC1[NH-].[Pt+2]` (stereo not drawn) was tested, and the T/C (endpoint: median survival time, dose: 3.12 mg/kg/injection, schedule: Q04DX003 (ip), vehicle: saline) was 102 % of control and 107 % of control and 108 % of control, the T/C (endpoint: median survival time, dose: 6.25 mg/kg/injection, schedule: Q04DX003 (ip), vehicle: saline) was 107 % of control [middle of 4 runs] and the T/C (endpoint: median survival time, dose: 12.5 mg/kg/injection, schedule: Q04DX003 (ip), vehicle: saline) was 112 % of control [middle of 4 runs]. For the same molecule, the T/C (endpoint: median survival time, dose: 25.0 mg/kg/injection, schedule: Q04DX003 (ip), vehicle: saline) was 112 % of control [middle of 4 runs], the T/C (endpoint: median survival time, dose: 50.0 mg/kg/injection, schedule: Q04DX003 (ip), vehicle: saline) was 122 % of control and 119 % of control and the T/C (endpoint: median survival time, dose: 200.0 mg/kg/injection, schedule: Q04DX003 (ip), vehicle: saline) was 187 % of control [middle of 4 runs].

For `CS(=O)(=O)OCCCOS(C)(=O)=O`, the T/C (endpoint: mean survival time, dose: 12.5 mg/kg/injection, schedule: Q01DX009 (ip), vehicle: saline with Tween-80) was 107 % of control, the T/C (endpoint: mean survival time, dose: 25.0 mg/kg/injection, schedule: Q01DX009 (ip), vehicle: saline with Tween-80) was 116 % of control and the T/C (endpoint: mean survival time, dose: 50.0 mg/kg/injection, schedule: Q01DX001 (ip), vehicle: saline) was 96 % of control. The T/C (endpoint: mean survival time, dose: 50.0 mg/kg/injection, schedule: Q01DX009 (ip), vehicle: saline with Tween-80) was 116 % of control, the T/C [1] was 100 % of control and the T/C [2] was 105 % of control. For the same molecule, the T/C [3] was 105 % of control, the T/C [4] was 102 % of control and the T/C [5] was 106 % of control. The T/C (endpoint: mean survival time, dose: 400.0 mg/kg/injection, schedule: Q01DX001 (ip), vehicle: saline) was 100 % of control and the T/C (endpoint: mean survival time, dose: 400.0 mg/kg/injection, schedule: Q04DX003 (ip), vehicle: saline) was 110 % of control.

`Cc1ccc(NC(=O)/C=C/c2ccccc2)c(C)c1` was tested, and the T/C (endpoint: mean survival time, dose: 100.0 mg/kg/injection, schedule: Q04DX002 (ip), vehicle: saline with Tween-80) was 94 % of control, the T/C (endpoint: mean survival time, dose: 200.0 mg/kg/injection, schedule: Q04DX002 (ip), vehicle: saline with Tween-80) was 94 % of control and the T/C (endpoint: mean survival time, dose: 400.0 mg/kg/injection, schedule: Q04DX002 (ip), vehicle: saline with Tween-80) was 94 % of control.

With `O=C1C(=C(C(F)(F)F)C(F)(F)F)CCc2ccc([N+](=O)[O-])cc21` the T/C [2] was 102 % of control, the T/C [6] was 114 % of control and the T/C [7] was 104 % of control. For the same molecule, the T/C [8] was 101 % of control, the T/C [9] was 102 % of control and the T/C [10] was 103 % of control.

In the case of `CC12CCCC1=[N+]1CCCCC1CC2=O` (stereo not drawn), the T/C [3] is reported as 101 % of control and the T/C [5] is reported as 101 % of control.

For `[O-][n+]1cc(-c2ccccc2)cc2ccccc21`, the T/C (endpoint: mean survival time, dose: 50.0 mg/kg/injection, schedule: Q04DX003 (ip), vehicle: saline with Tween-80) was 97 % of control and the T/C [6] was 97 % of control.

`OCC1OC(n2ncc3c2ncn2ccnc32)C(O)C1O` (stereo not drawn) was tested, and the T/C (endpoint: mean survival time, dose: 12.5 mg/kg/injection, schedule: Q01DX005 (ip), vehicle: water) was 101 % of control, the T/C (endpoint: mean survival time, dose: 25.0 mg/kg/injection, schedule: Q01DX005 (ip), vehicle: water) was 101 % of control and the T/C (endpoint: mean survival time, dose: 50.0 mg/kg/injection, schedule: Q01DX005 (ip), vehicle: water) was 97 % of control. For the same molecule, the T/C (endpoint: mean survival time, dose: 100.0 mg/kg/injection, schedule: Q01DX005 (ip), vehicle: water) was 97 % of control and the T/C (endpoint: mean survival time, dose: 200.0 mg/kg/injection, schedule: Q01DX005 (ip), vehicle: water) was 109 % of control.

`CC(C)(c1cc(Cl)c(OCCO)c(Cl)c1)c1cc(Cl)c(OCCO)c(Cl)c1` was tested, and the T/C [6] was 105 % of control, the T/C [8] was 102 % of control and the T/C [10] was 109 % of control.

`CCC1C(=O)OCc2c1cc1n(c2=O)Cc2cc3ccccc3nc2-1` (stereo not drawn) was tested, and the T/C (endpoint: mean survival time, dose: 7.39 mg/kg/injection, schedule: Q01DX001 (ip), vehicle: saline) was 101 % of control, the T/C (endpoint: mean survival time, dose: 11.1 mg/kg/injection, schedule: Q01DX001 (ip), vehicle: saline) was 101 % of control and the T/C (endpoint: mean survival time, dose: 16.6 mg/kg/injection, schedule: Q01DX001 (ip), vehicle: saline) was 100 % of control. The T/C (endpoint: mean survival time, dose: 25.0 mg/kg/injection, schedule: Q01DX001 (ip), vehicle: saline) was 111 % of control.

With `C=CCCCCCCCCC(=O)NCc1nc2ccccc2[nH]1` the T/C [2] was 91 % of control, the T/C [7] was 96 % of control and the T/C [9] was 96 % of control.

With `Cc1ccc2c(c1Oc1ccc(S(N)(=O)=O)cc1)C(=O)c1ccccc1C2=O` the T/C [2] was 103 % of control, the T/C (endpoint: mean survival time, dose: 100.0 mg/kg/injection, schedule: Q04DX003 (ip), vehicle: saline sonified) was 88 % of control and the T/C [6] was 90 % of control. The T/C [7] was 101 % of control, the T/C [9] was 97 % of control and the T/C (endpoint: mean survival time, dose: 400.0 mg/kg/injection, schedule: Q04DX003 (ip), vehicle: saline sonified) was 107 % of control.

For `O=C(O)Cc1cccc2c(=O)cc(-c3ccccc3)oc12`, the T/C (endpoint: median survival time, dose: 12.5 mg/kg/injection, schedule: Q01DX009 (ip), vehicle: suspension in saline) was 113 % of control and 109 % of control, the T/C (endpoint: median survival time, dose: 25.0 mg/kg/injection, schedule: Q01DX009 (ip), vehicle: suspension in saline) was 113 % of control and 105 % of control and the T/C (endpoint: median survival time, dose: 30.0 mg/kg/injection, schedule: Q01DX009 (ip), vehicle: saline with Tween-80) was 112 % of control. The T/C (endpoint: median survival time, dose: 30.0 mg/kg/injection, schedule: Q01DX009 (ip), vehicle: sodium bicarbonate) was 100 % of control, the T/C (endpoint: median survival time, dose: 44.0 mg/kg/injection, schedule: Q01DX009 (ip), vehicle: saline with Tween-80) was 123 % of control and the T/C (endpoint: median survival time, dose: 44.0 mg/kg/injection, schedule: Q01DX009 (ip), vehicle: sodium bicarbonate) was 113 % of control. For the same molecule, the T/C (endpoint: median survival time, dose: 45.0 mg/kg/injection, schedule: Q01DX009 (ip), vehicle: sodium bicarbonate) was 107 % of control, the T/C (endpoint: median survival time, dose: 50.0 mg/kg/injection, schedule: Q01DX009 (ip), vehicle: suspension in saline) was 116 % of control and the T/C (endpoint: median survival time, dose: 67.0 mg/kg/injection, schedule: Q01DX001 (ip), vehicle: sodium bicarbonate) was 101 % of control. For the same molecule, the T/C (endpoint: median survival time, dose: 67.0 mg/kg/injection, schedule: Q01DX009 (ip), vehicle: sodium bicarbonate) was 113 % of control and 112 % of control, the T/C (endpoint: median survival time, dose: 100.0 mg/kg/injection, schedule: Q01DX001 (ip), vehicle: sodium bicarbonate) was 108 % of control and the T/C (endpoint: median survival time, dose: 100.0 mg/kg/injection, schedule: Q01DX009 (ip), vehicle: saline with Tween-80) was 124 % of control. For the same molecule, the T/C (endpoint: median survival time, dose: 100.0 mg/kg/injection, schedule: Q01DX009 (ip), vehicle: sodium bicarbonate) was 119 % of control and 124 % of control, the T/C (endpoint: median survival time, dose: 100.0 mg/kg/injection, schedule: Q01DX009 (ip), vehicle: suspension in saline) was 113 % of control and the T/C (endpoint: median survival time, dose: 150.0 mg/kg/injection, schedule: Q01DX001 (ip), vehicle: sodium bicarbonate) was 112 % of control. For the same molecule, the T/C (endpoint: median survival time, dose: 150.0 mg/kg/injection, schedule: Q01DX009 (ip), vehicle: saline with Tween-80) was 108 % of control, the T/C (endpoint: median survival time, dose: 175.0 mg/kg/injection, schedule: Q01DX009 (ip), vehicle: sodium bicarbonate) was 156 % of control and the T/C (endpoint: median survival time, dose: 200.0 mg/kg/injection, schedule: Q01DX009 (ip), vehicle: suspension in saline) was 103 % of control. For the same molecule, the T/C (endpoint: median survival time, dose: 223.0 mg/kg/injection, schedule: Q01DX001 (ip), vehicle: sodium bicarbonate) was 108 % of control and the T/C (endpoint: median survival time, dose: 333.0 mg/kg/injection, schedule: Q01DX001 (ip), vehicle: sodium bicarbonate) was 121 % of control.

With `Cc1ccc(S(=O)(=O)NCCC(=O)Nc2ccccc2)cc1` the T/C (endpoint: mean survival time, dose: 50.0 mg/kg/injection, schedule: Q01DX009 (ip), vehicle: water) was 86 % of control, the T/C (endpoint: mean survival time, dose: 100.0 mg/kg/injection, schedule: Q01DX009 (ip), vehicle: water) was 86 % of control and the T/C (endpoint: mean survival time, dose: 200.0 mg/kg/injection, schedule: Q01DX009 (ip), vehicle: water) was 93 % of control.

For `O[C@@H](c1ccccc1)[C@@H](c1ccccc1)N1CCCCC1`, the T/C (endpoint: mean survival time, dose: 50.0 mg/kg/injection, schedule: Q04DX003 (ip), vehicle: saline) was 103 % of control, the T/C [1] was 96 % of control and the T/C [3] was 108 % of control. For the same molecule, the T/C [4] was 104 % of control and the T/C [5] was 98 % of control.

`CCOC(=O)c1ncc(Cl)cc1N` was tested, and the T/C (endpoint: mean survival time, dose: 50.0 mg/kg/injection, schedule: Q01DX009 (ip), vehicle: Klucel (hydroxypropylcellulose) (HPC)) was 97 % of control.
